Key:
[1] = biological target: T1, EP1 receptor (Homo sapiens, UniProt P34995); test: Cellular receptor functional assay (cAMP), EP1; type: cell-based; set-up: expressed in transfected cells; host or cells: CHO cells; conditions: for Antagonist effect, cAMP measurement: in presence of PGE2
T1 sequence (P34995 1-402): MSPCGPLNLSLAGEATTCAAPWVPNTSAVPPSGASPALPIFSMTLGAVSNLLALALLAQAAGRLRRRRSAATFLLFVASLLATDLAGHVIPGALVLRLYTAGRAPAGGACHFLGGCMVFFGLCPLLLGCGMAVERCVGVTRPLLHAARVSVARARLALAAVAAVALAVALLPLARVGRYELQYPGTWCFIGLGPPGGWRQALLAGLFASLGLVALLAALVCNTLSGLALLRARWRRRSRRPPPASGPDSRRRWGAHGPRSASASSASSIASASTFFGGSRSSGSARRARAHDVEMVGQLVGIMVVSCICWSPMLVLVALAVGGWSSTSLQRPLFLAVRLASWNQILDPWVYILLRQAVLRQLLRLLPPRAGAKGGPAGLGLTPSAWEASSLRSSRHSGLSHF
Method: To determine whether the inhibitory effect of DA001 on the ligand binding to EP receptors results from agonist or antagonist activity, DA001 was evaluated at a single concentration (10 μM) on cellular-specific receptor functional assays. Upon ligand binding, the EP receptors are activated which leads to an increase in intracellular cyclic AMP.
DA001 (10 μM) was subjected to ligand binding assay with the human EP1 or EP4 receptor over-expressing CHO cells. Results are expressed as a percent of control specific agonist response [100-(measured specific response/control specific agonist response)×100] obtained in the presence of DA001.
DA021 inhibits PGE2 ligand binding to EP1, EP2 and EP4 receptors. To determine whether the inhibitory effect is due to agonist or antagonist activity, DA021 was evaluated and compared at 1 concentration (30 uM) in cellular assays assessing receptor function. Upon ligand binding, the EP receptors are activated which leads to an increase in intracellular cyclic AMP.

[2] = biological target: FP receptor (Homo sapiens, UniProt P43088); test: Radioligand competition binding assay, FP; conditions: target PGF, compound at 10 μM in duplicate, read-out: % inhibition of control specific binding
Sequence of FP receptor (P43088 whole entry): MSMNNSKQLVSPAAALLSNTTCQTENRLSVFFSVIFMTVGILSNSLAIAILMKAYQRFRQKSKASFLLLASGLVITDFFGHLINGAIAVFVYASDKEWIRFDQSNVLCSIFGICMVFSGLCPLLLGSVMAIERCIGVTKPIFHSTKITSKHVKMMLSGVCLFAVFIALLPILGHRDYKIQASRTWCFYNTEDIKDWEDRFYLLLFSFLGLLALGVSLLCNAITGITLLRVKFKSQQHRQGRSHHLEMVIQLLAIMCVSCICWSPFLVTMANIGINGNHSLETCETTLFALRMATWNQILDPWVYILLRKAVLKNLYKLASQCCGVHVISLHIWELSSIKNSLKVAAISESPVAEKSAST
Method: DA001 was further evaluated against 32 receptor binding assays. Radioligand competition assays were conducted whereby DA001 was tested at one concentration (10 uM) in duplicate. […] It could compete with the radioligand [^3H] PGE2 binding at the EP1 and EP4 receptors, and weakly competed with the EP2 and FP receptors.
To determine the targets of DA compounds, the compound was assessed in binding assays for the family of prostanoid receptors. Both compounds were tested at a single concentration (10 μM) in duplicate. DA001 and DA021 inhibit the ligand binding of prostaglandin E2 receptors EP1, EP2 and EP4 and moderately to prostaglandin (PGF) to its receptor (FP), but not prostaglandin I (PGI2), thromoboxane A and prostaglandin D2 to their receptors.

[3] = biological target: human MC1 receptor (Homo sapiens, UniProt Q01726); test: Radioligand competition binding assay, MC1
Sequence of human MC1 receptor (Q01726 whole entry): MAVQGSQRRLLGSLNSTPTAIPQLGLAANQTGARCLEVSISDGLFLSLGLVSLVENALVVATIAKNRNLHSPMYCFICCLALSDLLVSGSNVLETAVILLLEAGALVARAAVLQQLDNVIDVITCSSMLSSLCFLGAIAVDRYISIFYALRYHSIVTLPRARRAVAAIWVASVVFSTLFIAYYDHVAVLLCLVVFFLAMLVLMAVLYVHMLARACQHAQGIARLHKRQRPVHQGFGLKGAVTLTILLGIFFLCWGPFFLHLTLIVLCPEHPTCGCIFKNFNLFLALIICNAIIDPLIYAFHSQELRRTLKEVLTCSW
Method: DA001 was evaluated against 109 receptor binding assays and 17 enzyme assays, comprising of selective, central and peripheral therapeutically-relevant targets. Radioligand competition assays were conducted whereby DA001 was tested at one concentration (10 μM) in duplicate. […] It could compete with the radioligand [^125I-NDP-alpha-melanocyte-stimulating hormone (α-MSH)] binding for MC1 and MC4 but not MC3 and MC5 nor the related family, the melanin concentrating hormone receptors (MCH1 and MCH2).
To determine the IC50 for DA001 to inhibit α-MSH binding on MC1 and MC4 receptor, the compound was further characterized by a dose-dependent study. DA001 was evaluated with 8 concentrations on MC1 and MC4 receptor binding assays.
The specific ligand binding to the receptors is defined as the difference between the total binding and the nonspecific binding determined in the presence of an excess of unlabelled ligand. The results are expressed as a percent of control specific binding [(measured specific binding/control specific binding)×100] and as a percent inhibition of control specific binding {100−[(measured specific binding/control specific binding)×100]} obtained in the presence of DA001. The IC50 values (concentration causing a half-maximal inhibition of control specific binding) and Hill coefficients (nH) were determined by non-linear regression analysis of the competition curves generated with mean replicate values using Hill equation curve fitting (Y=D+[(A−D)/(1+(C/C50)nH)], where Y=specific binding, D=minimum specific binding, A=maximum specific binding, C=compound concentration, C50=IC50, and nH=slope factor). This analysis was performed using a software developed at Cerep (Hill software) and validated by comparison with data generated by the commercial software SigmaPlot® 4.0 for Windows® (© 1997 by SPSS Inc.).

C=C(C)[C@@H]1CC[C@]2(/C=N/O)CC[C@]3(C)C(CCC4[C@@]5(C)CCC(=O)[C@@](C)(CO)[C@@H]5CC[C@]43C)C12 (stereo partly drawn) [DA021]
Agonist effect, cAMP measurement ([1]; 30 uM): 9 | Antagonist effect, cAMP measurement ([1]; 30 uM): 87 | inhibition at 10 µM [2]: 52%

C=C(C)[C@@H]1CC[C@]2(C(=O)O)CC[C@]3(C)C(CC[C@@H]4[C@@]5(C)CC[C@H](O[C@@H]6OC[C@H](O)[C@H](O)[C@H]6O[C@@H]6O[C@@H](C)[C@H](O)[C@@H](O)[C@H]6O)[C@@](C)(CO)[C@@H]5CC[C@]43C)[C@@H]12 (stereo partly drawn) [DA001, 3-O-[α-L-rhamnopyranosyl-(1→2)-α-L-arabinopyranosyl]-3,23-dihydroxy-20(29)-lupen-28-oic acid]
Antagonist effect, cAMP measurement ([1]; 10 μM): 38% | Agonist effect, cAMP measurement ([1]; 10 μM, percent of control specific agonist response): 8.1% | Ki [3]: 5.2 µM | IC50 ([3]; 8 concentrations): 10 µM | nH ([3]; Hill coefficient): 0.9 | inhibition at 10 µM [2]: 27%

Reference: US9029414B2, “Triterpenoid compounds and methods of use thereof” (Biotechnology Research Corporation, priority 2008, dated 2015)
